Laboratory results taken from patent publication US4647552A, “Process for obtaining ready for fertilization sexual products from sexually mature fish” (Kozponti Valto-es Hitelbank Rt. Innovacios Alap, priority 1983, dated 1987).
Where a SMILES comes first, the peptide text is derived from it. [ ]: non-standard residue; d: D form. pGlu = O=C1CC[C@@H](C(=O)O)N1

What was measured:
Format in all cases: in vivo
[1] = system: sterlet (Acipenser ruthenus L.); test: Induced artificial propagation of sterlet; settings: single dose of 70 μg if ripe for ovulation, or last of the 10 μg doses, injected
Procedure: From the population of a given habitat mature fish are selected and then transported to the place of propagation. Sexes are segregated and the stage of ripening of eggs from females is determined. Fish are considered to be ripe for ovulation if the nucleus is situated on the periphery of the egg cell. Sperms of males are not examined as in the population of a given habitat the sexual products of males and females are practically in the same stage of ripening. If fish are ripe for ovulation, decapeptide of formula (II) in a single dose of 70 μg each is injected into each fish, including males. If fish are not ripe for ovulation, they should be kept at the temperature of natural spawning and the above compound should be administered in doses of 10 μg each, at least 2 but at most 12 times as long as the nucleus moves from the centre to the periphery. The number of treatments depends on the actual stage of maturity of sexual products in comparison to the stage "ripe for ovulation". This process of ripening lasts at least 100 but at most 630 day-grades in the temperature interval of 12°-18° C. (Day-grade means number of days multiplied by the mean temperature of water used in the ripening period.) Ovulation takes place 24-32 hours after the administration of the last dose. Thereafter sexual products are obtained in 40-60 minutes.

[2] = system: horse mackerel (Trachurus trachurus L.); test: Induced artificial propagation of horse mackerel; settings: single dose of 10 μg injected, water temperature 18°-24° C.
Procedure: From among horse mackerels caught alive from the Adriatic in November specimens having a length of at least 240 mm are transported to the place of propagation. (Fish of this size are already mature sexually.) The compound of formula (II) is injected into each fish in a single dose of 10 μg. Ovulation takes place in 24 hours at the water temperature of 18°-24° C. Sexual products are obtained in 2 hours. In case of horse mackerel the determination of stage of ripening and sex is unnecessary as ripe fish are at disposal in a practically unlimited quantity.

[3] = system: perch [Perca fluviatilis L.]; test: Induced artificial propagation of perch; settings: single dose of 20 μg if ripe for ovulation, or last of the 2 μg doses
Procedure: Mature fish are selected from a population and transported to the place of propagation. Maturity of sexual products is determined according to Example 1 but sexes are not segregated. Fish ripe for ovulation--includingmales--are treated with a single dose of 20 μg of decapeptide of formula (II). Fish not yet ripe for ovulation should be kept at the temperature of natural spawning and the above-mentioned compound should be administered in doses of 2 μg each at least 2 but at most 10 times as long as the nucleus of egg cell moves from the centre to the periphery. The number of treatments depends on the actual stage of maturity of sexual products in comparison to the stage "ripe for ovulation". The process of ripening lasts at least 100 day-grades, in extreme cases to 400 day-grades, in the water temperature-interval of 12°-16° C. Spawning takes place 24-36 hours after the administration of the last dose. Perch can be spawned easily in tanks; in such a case stripping of sexual products is not necessary.

[4] = system: common carp (Cyprinus carpio L.); test: Induced artificial propagation of common carp; settings: single dose of 70 μg if ripe for ovulation, or last of the 5 μg doses
Procedure: In any season of the year and at any temperature mature breeders are selected from the stock and transported to the place of propagation. Sexes are segregated and the stage of ripening of sexual products is determined according to Example 1. If fish are ripe for ovulation, a single dose of 70 μg of decapeptide of formula (III) is administered, including males. Fish not yet ripe for making ovulate should be kept at the temperature of natural spawning and the above-mentioned compound should be administered in doses of 5 μg each, at least 2 but at most 15 times as long as the nucleus of the egg cell moves from the centre to the periphery. The number of treatments depends on the actual stage of maturity of sexual products in comparison to the stage "ripe for ovulation". The process of ripening lasts at least 100 but most 750 day-grades in the temperature interval of 20°-24° C. Ovulation takes place 240-260 hour-grades after the administration of the last dose. Then sexual products are stripped in 40-60 minutes. cl EXAMPLE 3

[5] = system: silver carp (Hypophthalmichthys molitrix Val.); test: Induced artificial propagation of silver carp; settings: single dose of 100 μg if ripe for ovulation, or last of the 10 μg doses
Procedure: Sexually mature fish are selected from the stock and transported to the place of propagation. Sexes are segregated. Stage of ripening of sexual products is determined according to Example 1 and fish ripe for ovulation--including males--are treated with a single dose of 100 μg of decapeptide of formula (III). Fish not yet ripe for ovulation should be kept at the temperature of natural spawning and the above-mentioned compound should be administered in doses of 10 μg each, at least 2 but at most 10 times as long as the nucleus of egg cell moves from the centre to the periphery. The number of treatments depends on the actual stage of maturity of sexual products in comparison to the stage "ripe for ovulation". This process of ripening lasts at least 150, in extreme cases to 850, day-grades in the water temperature interval of 20°-26° C. Ovulation takes place 240-260 hour-grades after the administration of the last dose. Thereafter sexual products are stripped.

Row | Structure (SMILES) | Ovulation takes place after the administration of the last dose [1] [h] | Ovulation takes place in [2] [h] | Spawning takes place after the administration of the last dose [3] [h] | Ovulation takes place after the administration of the last dose [4] | Ovulation takes place after the administration of the last dose [5]
1 | CC(C)C[C@H](NC(=O)[C@@H](Cc1ccccc1)NC(=O)[C@H](Cc1ccc(O)cc1)NC(=O)[C@H](CO)NC(=O)[C@H](Cc1c[nH]c2ccccc12)NC(=O)[C@H](Cc1c[nH]cn1)NC(=O)[C@@H]1CCC(=O)N1)C(=O)N[C@@H](CCC(N)=O)C(=O)N1CCC[C@H]1C(=O)NCC(N)=O [formula (II), Glp-His-Trp-Ser-Tyr-D-Phe-Leu-Gln-Pro-Gly-NH2] ([pGlu]HWSY[dF]LQPG-NH2) | 24 to 32 | 24 | 24 to 36 | – | –
2 | CC(C)C[C@H](NC(=O)[C@H](Cc1c[nH]c2ccccc12)NC(=O)[C@@H](Cc1ccccc1)NC(=O)[C@H](Cc1ccc(O)cc1)NC(=O)[C@H](CO)NC(=O)[C@H](Cc1c[nH]c2ccccc12)NC(=O)[C@H](Cc1c[nH]cn1)NC(=O)[C@@H]1CCC(=O)N1)C(=O)N1CCC[C@H]1C(=O)NCC(N)=O [formula (III), Glp-His-Trp-Ser-Tyr-D-Phe-Trp-Leu-Pro-Gly-NH2] ([pGlu]HWSY[dF]WLPG-NH2) | – | – | – | 240-260 hour-grades | 240-260 hour-grades
